In US20250368614A1, “COMPOUNDS AND METHODS FOR YAP/TEAD MODULATION AND INDICATIONS THEREFOR” (OPNA BIO SA, priority 2023, published 2025):

What follows are compounds tested on TEAD-dependent transcription (12XGTIIC TEAD response element luciferase reporter) in MSTO-211H cells (assay: TEAD-dependent transcription cell-based luciferase reporter assay in MSTO-211H+12XGTIIC cells). Settings: Homo sapiens; MSTO-211H+12XGTIIC reporter cells, 24 hours compound incubation, luminescence normalized to cell viability signal, geometric mean; read-out: MSTO-211H GMean IC50 (uM) Cell Assay Reporter Cell Variant: TEAD.
Source text: Determine Inhibitor Activity Against TEAD-Dependent Transcription in a Cell-Based Reporter Assay
The human mesothelioma cell line MSTO-211H was stably transfected with a pGL4.21 plasmid containing a synthetic promoter with 12 copies of the GTIIC TEAD response element that drives the expression of a luciferase reporter gene^1 using Lipofectamine transfection reagent (Thermo Fisher). Transfected cells were selected using puromycin and single cell clones expressing this construct (referred to as MSTO-211H+12XGTIIC) were generated by limiting dilution. MSTO-211H cells was characterized by genetic alterations in key components of the Hippo pathway^2, resulting in up-regulation of YAP/TEAD-mediated transcription. […] To evaluate TEAD inhibitors, the MSTO-211H+12XGTIIC cell line was seeded in a 96-well plate in 50 μL of culture media at 1×10^4 cells per well and incubated at 37° C. overnight. Serial dilutions of compounds (in total volume of 50 μL of culture media) were added to the cells and incubated at 37° C. for 24 hours. Each plate included cells treated with DMSO as high controls and cells treated with 20 μM of the reference compound K-975 (a known TEAD inhibitor^3) as low controls. Cell viability was assayed by the addition of 25 μL of CellTiter-Fluor reagent (Promega) followed by a 30-minute incubation at 37° C. and quantification of the fluorescence signal (Ex400/Em505). Subsequently, luciferase expression was assayed by the addition of 25 μL of ONE-Glo reagent (Promega) followed by a 10-minute incubation at room temperature and quantification of the luminescence signal. The luminescence signal was normalized to the fluorescence signal to correct for any loss in cell viability over the 24-hour compound incubation period. The percentage of inhibition of normalized luminescence signal, indicative of compound-mediated inhibition of TEAD-dependent transcription, at individual compound concentrations relative to high and low controls was calculated. The data were analyzed by using nonlinear regression to generate IC50 values for individual compounds.

Structure (SMILES)	IC50
O=C(NCCC(=O)N1CCc2c(cccc2Nc2ccc(C(F)(F)F)c(F)c2)C1)Nc1ccccn1 [Compound O-0185, 1-(3-(5-((3-fluoro-4-(trifluoromethyl)phenyl)amino)-3,4-dihydroisoquinolin-2(1H)-yl)-3-oxopropyl)-3-(pyridin-2-yl)urea]	0.001 to 10 µM
O=C(C1CS(=O)(=O)C1)N1CCc2cc(Nc3ccc(C(F)(F)F)cc3)ccc2C1 [Compound O-0207, (1,1-dioxidothietan-3-yl)(6-((4-(trifluoromethyl)phenyl)amino)-3,4-dihydroisoquinolin-2(1H)-yl)methanone]	0.001 to 10 µM
CN(c1ccc(C(F)(F)F)cc1)c1ncnc2c1CCN(C(=O)CCS(=O)(=O)C(F)(F)F)C2 [Compound O-0025, 1-(4-(methyl(4-(trifluoromethyl)phenyl)amino)-5,8-dihydropyrido[3,4-d]pyrimidin-7(6H)-yl)-3-((trifluoromethyl)sulfonyl)propan-1-one]	0.001 to 10 µM
CN(c1ccc(C(F)(F)F)cc1)c1cccc2c1CCN(C(=O)c1cccc(N)n1)C2 [Compound O-0014, (6-aminopyridin-2-yl)(5-(methyl(4-(trifluoromethyl)phenyl)amino)-3,4-dihydroisoquinolin-2(1H)-yl)methanone]	0.001 to 10 µM
O=C(Nc1ccccn1)N1CCC(C(=O)N2CCc3c(cccc3Nc3ccc(C(F)(F)F)nc3)C2)C1 (centres unmarked) [Compound O-0097, N-(pyridin-2-yl)-3-(5-((6-(trifluoromethyl)pyridin-3-yl)amino)-1,2,3,4-tetrahydroisoquinoline-2-carbonyl)pyrrolidine-1-carboxamide]	0.001 to 10 µM
CN(c1ccc(C(F)(F)F)cn1)c1cccc2c1CCN(C(=O)CCS(=O)(=O)C(F)(F)F)C2 [Compound O-0022, 1-(5-(methyl(5-(trifluoromethyl)pyridin-2-yl)amino)-3,4-dihydroisoquinolin-2(1H)-yl)-3-((trifluoromethyl)sulfonyl)propan-1-one]	0.001 to 10 µM
C=CC(=O)Nc1cccc(C(=O)N2CCc3c(cccc3Nc3ccc(C(F)(F)F)cc3)C2)n1 [Compound O-0035, N-(6-(5-((4-(trifluoromethyl)phenyl)amino)-1,2,3,4-tetrahydroisoquinoline-2-carbonyl)pyridin-2-yl)acrylamide]	0.001 to 10 µM
O=C(CCS(=O)(=O)C(F)(F)F)N1CCc2c(ncnc2Nc2ccc(C(F)(F)F)cc2)C1 [Compound O-0024, 1-(4-((4-(trifluoromethyl)phenyl)amino)-5,8-dihydropyrido[3,4-d]pyrimidin-7(6H)-yl)-3-((trifluoromethyl)sulfonyl)propan-1-one]	0.001 to 10 µM
CN(c1ccc(C(F)(F)F)cc1)c1cccc2c1CCN(C(=O)CCS(=O)(=O)C(F)(F)F)C2 [Compound O-0016, 1-(5-(methyl(4-(trifluoromethyl)phenyl)amino)-3,4-dihydroisoquinolin-2(1H)-yl)-3-((trifluoromethyl)sulfonyl)propan-1-one]	0.001 to 10 µM
O=C(NC1CC1)N1CCC(C(=O)N2CCc3c(cccc3Nc3ccc(C(F)(F)F)c(F)c3)C2)C1 (centres unmarked) [Compound O-0098, N-cyclopropyl-3-(5-((3-fluoro-4-(trifluoromethyl)phenyl)amino)-1,2,3,4-tetrahydroisoquinoline-2-carbonyl)pyrrolidine-1-carboxamide]	0.001 to 10 µM
CS(=O)(=O)c1cccc(C(=O)N2CCc3c(cccc3Nc3ccc(C(F)(F)F)cc3)C2)c1 [Compound O-0202, (3-(methylsulfonyl)phenyl)(5-((4-(trifluoromethyl)phenyl)amino)-3,4-dihydroisoquinolin-2(1H)-yl)methanone]	0.001 to 10 µM
CS(=O)(=O)c1nc(C(=O)N2CCc3c(cccc3Nc3ccc(C(F)(F)F)cc3)C2)c[nH]1 [Compound O-0045, (2-(methylsulfonyl)-1H-imidazol-4-yl)(5-((4-(trifluoromethyl)phenyl)amino)-3,4-dihydroisoquinolin-2(1H)-yl)methanone]	0.001 to 10 µM
Nc1nc(C(=O)N2CCc3c(cccc3Nc3ccc(C(F)(F)F)cc3)C2)cs1 [Compound O-0006, (2-aminothiazol-4-yl)(5-((4-(trifluoromethyl)phenyl)amino)-3,4-dihydroisoquinolin-2(1H)-yl)methanone]	0.001 to 10 µM
Nc1cc(C(=O)N2CCc3c(cccc3Nc3ccc(C(F)(F)F)cc3)C2)ccn1 [Compound O-0032, (2-aminopyridin-4-yl)(5-((4-(trifluoromethyl)phenyl)amino)-3,4-dihydroisoquinolin-2(1H)-yl)methanone]	0.001 to 10 µM
C=CC(=O)Nc1ccc(C(=O)N2CCc3c(cccc3N(C)c3ccc(C(F)(F)F)cc3)C2)cc1 [Compound O-0019, N-(4-(5-(methyl(4-(trifluoromethyl)phenyl)amino)-1,2,3,4-tetrahydroisoquinoline-2-carbonyl)phenyl)acrylamide]	0.001 to 10 µM
O=C(NC1CC1)N1CCC(C(=O)N2CCc3c(cccc3Nc3ccc(C(F)(F)F)cn3)C2)C1 (centres unmarked) [Compound O-0092, N-cyclopropyl-3-(5-((5-(trifluoromethyl)pyridin-2-yl)amino)-1,2,3,4-tetrahydroisoquinoline-2-carbonyl)pyrrolidine-1-carboxamide]	0.001 to 10 µM
NC(=O)NCCC(=O)N1CCc2c(cccc2Nc2ccc(C(F)(F)F)cc2F)C1 [Compound O-0192, 1-(3-(5-((2-fluoro-4-(trifluoromethyl)phenyl)amino)-3,4-dihydroisoquinolin-2(1H)-yl)-3-oxopropyl)urea]	0.001 to 10 µM
O=C(Cc1cn[nH]c1)N1CCc2c(cccc2Nc2ccc(C(F)(F)F)cc2)C1 [Compound O-0026, 2-(1H-pyrazol-4-yl)-1-(5-((4-(trifluoromethyl)phenyl)amino)-3,4-dihydroisoquinolin-2(1H)-yl)ethan-1-one]	0.001 to 10 µM
CN(c1ccc(C(F)(F)F)cc1)c1cccc2c1CCN(C(=O)Cc1cn[nH]c1)C2 [Compound O-0011, 1-(5-(methyl(4-(trifluoromethyl)phenyl)amino)-3,4-dihydroisoquinolin-2(1H)-yl)-2-(1H-pyrazol-4-yl)ethan-1-one]	0.001 to 10 µM
CS(=O)(=O)c1cc(C(=O)N2CCc3c(cccc3Nc3ccc(C(F)(F)F)cc3)C2)ccn1 [Compound O-0201, (2-(methylsulfonyl)pyridin-4-yl)(5-((4-(trifluoromethyl)phenyl)amino)-3,4-dihydroisoquinolin-2(1H)-yl)methanone]	0.001 to 10 µM
N=C(N)N1CCC(C(=O)N2CCc3c(cccc3Nc3ccc(C(F)(F)F)cn3)C2)C1 (centres unmarked) [Compound O-0203, 3-(5-((5-(trifluoromethyl)pyridin-2-yl)amino)-1,2,3,4-tetrahydroisoquinoline-2-carbonyl)pyrrolidine-1-carboximidamide]	0.001 to 10 µM
NC(=O)NCCC(=O)N1CCc2c(cccc2Nc2ccc(C(F)(F)F)nc2)C1 [Compound O-0189, 1-(3-oxo-3-(5-((6-(trifluoromethyl)pyridin-3-yl)amino)-3,4-dihydroisoquinolin-2(1H)-yl)propyl)urea]	0.001 to 10 µM
O=C(Nc1ccccn1)N1CCC(C(=O)N2CCc3c(cccc3Nc3ccc(C(F)(F)F)cn3)C2)C1 (centres unmarked) [Compound O-0093, N-(pyridin-2-yl)-3-(5-((5-(trifluoromethyl)pyridin-2-yl)amino)-1,2,3,4-tetrahydroisoquinoline-2-carbonyl)pyrrolidine-1-carboxamide]	0.001 to 10 µM
